In PMC7442744 (Journal of the American Chemical Society, 2020):

Target: human SQOR (sulfide quinone oxidoreductase) (Homo sapiens, UniProt Q9Y6N5)
Assay: absorption spectroscopy, charge transfer complex formation
Type: binding
Settings: covalent; 5 mM sulfite, 5 μM native SQOR, 20 °C, 1 min

human SQOR (sulfide quinone oxidoreductase), sequence (Q9Y6N5 42-450): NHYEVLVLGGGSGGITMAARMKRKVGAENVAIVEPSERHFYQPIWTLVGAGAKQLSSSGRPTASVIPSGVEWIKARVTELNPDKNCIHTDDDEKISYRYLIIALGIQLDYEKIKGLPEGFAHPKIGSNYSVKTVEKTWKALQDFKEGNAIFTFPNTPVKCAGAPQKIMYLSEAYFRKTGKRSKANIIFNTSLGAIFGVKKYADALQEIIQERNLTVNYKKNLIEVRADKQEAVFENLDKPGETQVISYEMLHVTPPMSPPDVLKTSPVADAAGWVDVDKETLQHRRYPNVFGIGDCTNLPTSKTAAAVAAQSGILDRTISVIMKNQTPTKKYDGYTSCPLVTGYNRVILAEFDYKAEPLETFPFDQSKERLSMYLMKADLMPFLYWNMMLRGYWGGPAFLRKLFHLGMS

O=S(O)O [sulfite]
absorption spectroscopy, charge transfer complex formation: sulfite treatment, which forms a strong CT complex when added to native SQOR
